Source: the kinase profiling compilation of Christmann-Franck et al. (2016)

molecular target: MAPKAPK2 (human) (UniProt P49137); assay: radiometric filter-binding kinase assay, Kinase HotSpot; conditions: compound 0.5 µM; ATP 10 µM

**Q.** Which residual activity does the source give for `Clc1ccc(Nc2nnc(Cc3ccncc3)c3ccccc23)cc1` here?
**A.** Its residual activity is 98.8%.

**Q.** Which residual activity does the source give for `O=C1Nc2ccccc2/C1=C\c1c(Cl)[nH]c2ccccc12` here?
**A.** Its residual activity is 101%.

molecular target: DCLK2 (human) (UniProt Q8N568); assay: as above; conditions: compound 0.5 µM; ATP 10 µM
Sequence (Q8N568 whole entry, looked up): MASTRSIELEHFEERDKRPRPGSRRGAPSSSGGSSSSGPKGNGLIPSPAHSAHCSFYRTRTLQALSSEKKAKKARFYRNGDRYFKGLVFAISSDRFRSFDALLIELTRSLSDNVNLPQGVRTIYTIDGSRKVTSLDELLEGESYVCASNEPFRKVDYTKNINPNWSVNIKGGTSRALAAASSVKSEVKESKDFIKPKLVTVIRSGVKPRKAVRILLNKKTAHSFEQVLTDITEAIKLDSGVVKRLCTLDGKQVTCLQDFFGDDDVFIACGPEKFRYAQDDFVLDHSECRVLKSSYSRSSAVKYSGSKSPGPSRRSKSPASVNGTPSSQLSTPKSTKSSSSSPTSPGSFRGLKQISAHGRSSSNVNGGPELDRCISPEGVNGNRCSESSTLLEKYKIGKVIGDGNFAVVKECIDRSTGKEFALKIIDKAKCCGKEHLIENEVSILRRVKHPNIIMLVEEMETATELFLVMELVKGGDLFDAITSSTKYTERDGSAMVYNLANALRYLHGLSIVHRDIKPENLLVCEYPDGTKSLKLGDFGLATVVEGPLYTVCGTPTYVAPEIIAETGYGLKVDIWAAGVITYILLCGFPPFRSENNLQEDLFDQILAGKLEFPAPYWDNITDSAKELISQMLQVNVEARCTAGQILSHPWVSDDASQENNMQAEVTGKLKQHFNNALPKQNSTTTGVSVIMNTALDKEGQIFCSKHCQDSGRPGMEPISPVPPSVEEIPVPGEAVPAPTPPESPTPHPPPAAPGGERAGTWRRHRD

**Q.** How did the residual activity turn out when `COc1cc2ncnc(Nc3ccc(F)c(Cl)c3)c2cc1OCCCN1CCOCC1` was run?
**A.** The residual activity was 101%.

**Q.** With `C#Cc1cccc(Nc2ncnc3cc(OCCOC)c(OCCOC)cc23)c1` as the compound, how does the residual activity read?
**A.** The residual activity was 102%.

**Q.** How did the residual activity turn out when `Nc1nc(Nc2ccc(S(N)(=O)=O)cc2)nn1C(=O)c1c(F)cccc1F` was run?
**A.** The residual activity was 85.3%.

**Q.** Which residual activity does the source give for `Clc1ccc(Nc2nnc(Cc3ccncc3)c3ccccc23)cc1` here?
**A.** The residual activity was 100%.

**Q.** How did the residual activity turn out when `O=C1Nc2ccccc2/C1=C\c1c(Cl)[nH]c2ccccc12` was run?
**A.** The residual activity was 93.5%.

molecular target: MAPK9 (human) (UniProt P45984); assay: as above; conditions: compound 0.5 µM; ATP 10 µM
Sequence (P45984 whole entry, looked up): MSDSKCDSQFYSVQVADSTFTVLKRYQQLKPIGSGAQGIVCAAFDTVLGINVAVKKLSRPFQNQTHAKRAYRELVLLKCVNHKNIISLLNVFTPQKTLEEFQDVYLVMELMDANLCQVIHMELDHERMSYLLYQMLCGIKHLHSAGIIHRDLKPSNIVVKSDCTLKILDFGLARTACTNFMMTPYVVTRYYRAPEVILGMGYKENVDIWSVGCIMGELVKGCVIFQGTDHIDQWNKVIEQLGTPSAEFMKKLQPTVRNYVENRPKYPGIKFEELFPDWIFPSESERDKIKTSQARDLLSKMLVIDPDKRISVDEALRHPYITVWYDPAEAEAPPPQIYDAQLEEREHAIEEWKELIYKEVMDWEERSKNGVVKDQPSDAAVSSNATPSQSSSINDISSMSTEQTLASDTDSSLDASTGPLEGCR

**Q.** Which residual activity does the source give for `COc1cc2ncnc(Nc3ccc(F)c(Cl)c3)c2cc1OCCCN1CCOCC1` here?
**A.** The residual activity was 95.5%.

**Q.** Which residual activity does the source give for `Nc1nc(Nc2ccc(S(N)(=O)=O)cc2)nn1C(=O)c1c(F)cccc1F` here?
**A.** The residual activity was 93.7%.

**Q.** How did the residual activity turn out when `Clc1ccc(Nc2nnc(Cc3ccncc3)c3ccccc23)cc1` was run?
**A.** Its residual activity is 97.5%.

**Q.** `O=C1Nc2ccccc2/C1=C\c1c(Cl)[nH]c2ccccc12` was tested. Which residual activity did it give?
**A.** Its residual activity is 101%.

molecular target: CLK4 (human) (UniProt Q9HAZ1); assay: as above; conditions: compound 0.5 µM; ATP 10 µM
Sequence (Q9HAZ1 whole entry, looked up): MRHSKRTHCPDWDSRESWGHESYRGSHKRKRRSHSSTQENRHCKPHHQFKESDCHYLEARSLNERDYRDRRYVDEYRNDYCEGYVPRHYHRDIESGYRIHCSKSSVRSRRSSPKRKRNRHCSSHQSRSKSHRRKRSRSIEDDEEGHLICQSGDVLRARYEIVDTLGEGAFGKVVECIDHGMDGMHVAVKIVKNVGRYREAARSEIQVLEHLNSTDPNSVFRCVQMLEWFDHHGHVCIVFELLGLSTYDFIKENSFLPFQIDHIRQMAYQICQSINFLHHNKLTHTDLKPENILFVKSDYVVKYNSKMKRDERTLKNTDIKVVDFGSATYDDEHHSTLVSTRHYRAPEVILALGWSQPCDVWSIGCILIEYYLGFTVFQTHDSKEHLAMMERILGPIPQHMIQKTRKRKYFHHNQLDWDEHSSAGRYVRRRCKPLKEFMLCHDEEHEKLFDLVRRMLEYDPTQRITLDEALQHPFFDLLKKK

**Q.** For `COc1cc2ncnc(Nc3ccc(F)c(Cl)c3)c2cc1OCCCN1CCOCC1`, which residual activity is on record?
**A.** Its residual activity is 107%.

**Q.** `C#Cc1cccc(Nc2ncnc3cc(OCCOC)c(OCCOC)cc23)c1` was tested. Which residual activity did it give?
**A.** The residual activity was 101%.

**Q.** Which residual activity does the source give for `Nc1nc(Nc2ccc(S(N)(=O)=O)cc2)nn1C(=O)c1c(F)cccc1F` here?
**A.** The residual activity was 41.6%.

**Q.** With `Clc1ccc(Nc2nnc(Cc3ccncc3)c3ccccc23)cc1` as the compound, how does the residual activity read?
**A.** Its residual activity is 108%.

**Q.** How did the residual activity turn out when `O=C1Nc2ccccc2/C1=C\c1c(Cl)[nH]c2ccccc12` was run?
**A.** Its residual activity is 105%.

molecular target: CDC42BPB (human) (UniProt Q9Y5S2); assay: as above; conditions: compound 0.5 µM; ATP 10 µM

**Q.** For `C#Cc1cccc(Nc2ncnc3cc(OCCOC)c(OCCOC)cc23)c1`, which residual activity is on record?
**A.** The residual activity was 98.5%.

**Q.** With `Nc1nc(Nc2ccc(S(N)(=O)=O)cc2)nn1C(=O)c1c(F)cccc1F` as the compound, how does the residual activity read?
**A.** The residual activity was 96%.

**Q.** For `Clc1ccc(Nc2nnc(Cc3ccncc3)c3ccccc23)cc1`, which residual activity is on record?
**A.** The residual activity was 99.5%.

**Q.** For `O=C1Nc2ccccc2/C1=C\c1c(Cl)[nH]c2ccccc12`, which residual activity is on record?
**A.** Its residual activity is 102%.

molecular target: MAPK12 (human) (UniProt P53778); assay: as above; conditions: compound 0.5 µM; ATP 10 µM
Sequence (P53778 whole entry, looked up): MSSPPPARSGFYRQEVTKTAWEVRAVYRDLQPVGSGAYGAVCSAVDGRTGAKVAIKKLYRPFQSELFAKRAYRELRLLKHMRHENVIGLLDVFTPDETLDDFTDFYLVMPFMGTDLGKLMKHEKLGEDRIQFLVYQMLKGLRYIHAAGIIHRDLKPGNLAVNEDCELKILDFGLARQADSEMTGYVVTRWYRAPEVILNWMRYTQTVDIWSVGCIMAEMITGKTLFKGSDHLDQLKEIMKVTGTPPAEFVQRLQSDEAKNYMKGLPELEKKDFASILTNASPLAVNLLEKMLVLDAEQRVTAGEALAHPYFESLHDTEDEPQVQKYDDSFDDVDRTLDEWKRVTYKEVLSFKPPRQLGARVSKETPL

**Q.** Which residual activity does the source give for `COc1cc2ncnc(Nc3ccc(F)c(Cl)c3)c2cc1OCCCN1CCOCC1` here?
**A.** Its residual activity is 97.5%.

**Q.** With `C#Cc1cccc(Nc2ncnc3cc(OCCOC)c(OCCOC)cc23)c1` as the compound, how does the residual activity read?
**A.** Its residual activity is 97.8%.

**Q.** How did the residual activity turn out when `Nc1nc(Nc2ccc(S(N)(=O)=O)cc2)nn1C(=O)c1c(F)cccc1F` was run?
**A.** The residual activity was 89.9%.

**Q.** How did the residual activity turn out when `Clc1ccc(Nc2nnc(Cc3ccncc3)c3ccccc23)cc1` was run?
**A.** The residual activity was 96.8%.

**Q.** With `O=C1Nc2ccccc2/C1=C\c1c(Cl)[nH]c2ccccc12` as the compound, how does the residual activity read?
**A.** Its residual activity is 93%.

molecular target: NTRK3 (human) (UniProt Q16288); assay: as above; conditions: compound 0.5 µM; ATP 10 µM

**Q.** How did the residual activity turn out when `COc1cc2ncnc(Nc3ccc(F)c(Cl)c3)c2cc1OCCCN1CCOCC1` was run?
**A.** The residual activity was 103%.

**Q.** `C#Cc1cccc(Nc2ncnc3cc(OCCOC)c(OCCOC)cc23)c1` was tested. Which residual activity did it give?
**A.** Its residual activity is 96%.

**Q.** For `Nc1nc(Nc2ccc(S(N)(=O)=O)cc2)nn1C(=O)c1c(F)cccc1F`, which residual activity is on record?
**A.** Its residual activity is 37.6%.

**Q.** `Clc1ccc(Nc2nnc(Cc3ccncc3)c3ccccc23)cc1` was tested. Which residual activity did it give?
**A.** The residual activity was 92.7%.

**Q.** How did the residual activity turn out when `O=C1Nc2ccccc2/C1=C\c1c(Cl)[nH]c2ccccc12` was run?
**A.** Its residual activity is 92.9%.

molecular target: NEK6 (human) (UniProt Q9HC98); assay: as above; conditions: compound 0.5 µM; ATP 10 µM
Sequence (Q9HC98 whole entry, looked up): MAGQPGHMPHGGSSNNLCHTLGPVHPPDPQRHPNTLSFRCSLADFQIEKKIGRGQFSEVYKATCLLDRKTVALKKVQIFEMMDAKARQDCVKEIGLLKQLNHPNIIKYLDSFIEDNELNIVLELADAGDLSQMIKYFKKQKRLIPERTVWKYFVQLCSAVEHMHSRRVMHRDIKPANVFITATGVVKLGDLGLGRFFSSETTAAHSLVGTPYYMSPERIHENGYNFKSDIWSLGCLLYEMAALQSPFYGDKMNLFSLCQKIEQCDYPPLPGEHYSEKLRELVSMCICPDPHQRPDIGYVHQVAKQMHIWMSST

**Q.** How did the residual activity turn out when `COc1cc2ncnc(Nc3ccc(F)c(Cl)c3)c2cc1OCCCN1CCOCC1` was run?
**A.** Its residual activity is 89.9%.

**Q.** How did the residual activity turn out when `C#Cc1cccc(Nc2ncnc3cc(OCCOC)c(OCCOC)cc23)c1` was run?
**A.** The residual activity was 89.1%.

**Q.** `Nc1nc(Nc2ccc(S(N)(=O)=O)cc2)nn1C(=O)c1c(F)cccc1F` was tested. Which residual activity did it give?
**A.** Its residual activity is 102%.

**Q.** With `Clc1ccc(Nc2nnc(Cc3ccncc3)c3ccccc23)cc1` as the compound, how does the residual activity read?
**A.** Its residual activity is 93.3%.

**Q.** For `O=C1Nc2ccccc2/C1=C\c1c(Cl)[nH]c2ccccc12`, which residual activity is on record?
**A.** Its residual activity is 96.5%.

molecular target: CSNK1G1 (human) (UniProt Q9HCP0); assay: as above; conditions: compound 0.5 µM; ATP 10 µM
Sequence (Q9HCP0 whole entry, looked up): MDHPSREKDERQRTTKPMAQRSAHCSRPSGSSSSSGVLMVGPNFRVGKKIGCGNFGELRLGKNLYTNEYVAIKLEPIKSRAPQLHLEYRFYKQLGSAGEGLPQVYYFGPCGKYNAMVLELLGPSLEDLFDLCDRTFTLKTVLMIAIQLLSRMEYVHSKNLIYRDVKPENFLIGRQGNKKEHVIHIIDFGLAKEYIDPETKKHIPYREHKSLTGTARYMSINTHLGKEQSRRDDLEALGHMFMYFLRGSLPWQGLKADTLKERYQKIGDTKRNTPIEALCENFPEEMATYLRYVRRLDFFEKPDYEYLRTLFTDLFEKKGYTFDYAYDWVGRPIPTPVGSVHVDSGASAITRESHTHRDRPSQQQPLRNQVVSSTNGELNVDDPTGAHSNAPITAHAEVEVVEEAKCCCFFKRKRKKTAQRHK

**Q.** `COc1cc2ncnc(Nc3ccc(F)c(Cl)c3)c2cc1OCCCN1CCOCC1` was tested. Which residual activity did it give?
**A.** Its residual activity is 99.5%.

**Q.** Which residual activity does the source give for `C#Cc1cccc(Nc2ncnc3cc(OCCOC)c(OCCOC)cc23)c1` here?
**A.** Its residual activity is 104%.

**Q.** How did the residual activity turn out when `Clc1ccc(Nc2nnc(Cc3ccncc3)c3ccccc23)cc1` was run?
**A.** Its residual activity is 103%.

**Q.** Which residual activity does the source give for `O=C1Nc2ccccc2/C1=C\c1c(Cl)[nH]c2ccccc12` here?
**A.** Its residual activity is 99.3%.

molecular target: IGF1R (human) (UniProt P08069); assay: as above; conditions: compound 0.5 µM; ATP 10 µM
Sequence (P08069 whole entry, looked up): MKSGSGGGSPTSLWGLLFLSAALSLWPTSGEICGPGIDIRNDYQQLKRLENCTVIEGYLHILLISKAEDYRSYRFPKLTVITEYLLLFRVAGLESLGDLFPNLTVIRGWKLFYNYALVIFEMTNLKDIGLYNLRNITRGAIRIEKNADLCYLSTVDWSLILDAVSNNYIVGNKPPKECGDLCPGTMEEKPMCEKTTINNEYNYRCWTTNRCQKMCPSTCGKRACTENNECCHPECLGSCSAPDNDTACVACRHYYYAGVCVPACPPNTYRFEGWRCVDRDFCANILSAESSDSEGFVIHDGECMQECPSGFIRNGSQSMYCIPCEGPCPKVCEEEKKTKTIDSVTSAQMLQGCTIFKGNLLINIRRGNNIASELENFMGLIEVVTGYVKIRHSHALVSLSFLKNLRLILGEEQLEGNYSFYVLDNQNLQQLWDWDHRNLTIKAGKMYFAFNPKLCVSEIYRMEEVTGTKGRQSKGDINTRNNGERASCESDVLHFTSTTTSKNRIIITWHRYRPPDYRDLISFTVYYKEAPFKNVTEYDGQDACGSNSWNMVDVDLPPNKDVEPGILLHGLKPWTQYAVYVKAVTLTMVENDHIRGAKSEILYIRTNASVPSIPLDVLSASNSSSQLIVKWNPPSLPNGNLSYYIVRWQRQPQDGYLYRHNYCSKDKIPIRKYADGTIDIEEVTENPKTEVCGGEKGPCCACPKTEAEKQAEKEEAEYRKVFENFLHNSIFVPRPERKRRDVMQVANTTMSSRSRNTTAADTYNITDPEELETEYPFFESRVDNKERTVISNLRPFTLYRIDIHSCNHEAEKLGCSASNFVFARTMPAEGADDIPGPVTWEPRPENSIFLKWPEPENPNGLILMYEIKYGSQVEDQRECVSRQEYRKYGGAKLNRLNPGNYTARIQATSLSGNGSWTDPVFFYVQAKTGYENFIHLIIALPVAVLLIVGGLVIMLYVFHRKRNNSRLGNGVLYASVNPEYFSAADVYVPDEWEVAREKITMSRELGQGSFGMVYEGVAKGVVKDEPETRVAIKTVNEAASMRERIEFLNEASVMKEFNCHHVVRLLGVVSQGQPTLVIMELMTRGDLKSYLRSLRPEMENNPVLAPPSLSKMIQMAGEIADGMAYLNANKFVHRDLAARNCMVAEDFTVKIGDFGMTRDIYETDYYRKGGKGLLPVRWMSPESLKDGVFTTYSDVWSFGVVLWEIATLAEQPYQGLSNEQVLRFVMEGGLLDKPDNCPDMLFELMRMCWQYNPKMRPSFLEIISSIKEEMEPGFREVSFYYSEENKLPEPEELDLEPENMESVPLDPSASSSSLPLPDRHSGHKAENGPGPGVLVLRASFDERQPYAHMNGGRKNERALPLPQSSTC

**Q.** Which residual activity does the source give for `COc1cc2ncnc(Nc3ccc(F)c(Cl)c3)c2cc1OCCCN1CCOCC1` here?
**A.** Its residual activity is 92.3%.

**Q.** How did the residual activity turn out when `C#Cc1cccc(Nc2ncnc3cc(OCCOC)c(OCCOC)cc23)c1` was run?
**A.** The residual activity was 91.6%.

**Q.** Which residual activity does the source give for `Nc1nc(Nc2ccc(S(N)(=O)=O)cc2)nn1C(=O)c1c(F)cccc1F` here?
**A.** The residual activity was 86.9%.

**Q.** With `Clc1ccc(Nc2nnc(Cc3ccncc3)c3ccccc23)cc1` as the compound, how does the residual activity read?
**A.** Its residual activity is 108%.

**Q.** `O=C1Nc2ccccc2/C1=C\c1c(Cl)[nH]c2ccccc12` was tested. Which residual activity did it give?
**A.** The residual activity was 105%.

molecular target: DDR2 (human) (UniProt Q16832); assay: as above; conditions: compound 0.5 µM; ATP 10 µM
Sequence (Q16832 whole entry, looked up): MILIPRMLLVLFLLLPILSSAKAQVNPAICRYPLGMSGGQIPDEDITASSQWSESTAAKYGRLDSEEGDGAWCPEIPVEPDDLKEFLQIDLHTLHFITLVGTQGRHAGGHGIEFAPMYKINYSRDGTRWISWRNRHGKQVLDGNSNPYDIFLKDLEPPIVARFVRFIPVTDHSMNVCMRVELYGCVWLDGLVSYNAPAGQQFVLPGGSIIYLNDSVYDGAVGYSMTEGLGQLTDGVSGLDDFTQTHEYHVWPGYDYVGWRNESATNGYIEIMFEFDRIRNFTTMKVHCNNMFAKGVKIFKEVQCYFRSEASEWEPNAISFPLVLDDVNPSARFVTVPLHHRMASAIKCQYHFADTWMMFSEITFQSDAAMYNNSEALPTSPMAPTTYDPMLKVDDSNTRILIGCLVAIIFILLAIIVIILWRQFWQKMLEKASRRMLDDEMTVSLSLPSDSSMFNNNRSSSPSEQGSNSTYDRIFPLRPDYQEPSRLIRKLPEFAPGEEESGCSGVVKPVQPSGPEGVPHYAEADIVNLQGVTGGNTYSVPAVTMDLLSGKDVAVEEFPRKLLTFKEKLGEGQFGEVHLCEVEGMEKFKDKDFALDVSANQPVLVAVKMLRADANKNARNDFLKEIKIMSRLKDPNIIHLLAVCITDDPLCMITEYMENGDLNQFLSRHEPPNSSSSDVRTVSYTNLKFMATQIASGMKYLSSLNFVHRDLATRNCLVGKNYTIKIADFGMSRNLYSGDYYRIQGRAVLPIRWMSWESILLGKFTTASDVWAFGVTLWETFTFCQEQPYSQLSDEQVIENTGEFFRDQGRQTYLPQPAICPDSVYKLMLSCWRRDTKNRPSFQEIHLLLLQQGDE

**Q.** Which residual activity does the source give for `COc1cc2ncnc(Nc3ccc(F)c(Cl)c3)c2cc1OCCCN1CCOCC1` here?
**A.** The residual activity was 117%.

**Q.** With `Nc1nc(Nc2ccc(S(N)(=O)=O)cc2)nn1C(=O)c1c(F)cccc1F` as the compound, how does the residual activity read?
**A.** Its residual activity is 113%.

**Q.** Which residual activity does the source give for `Clc1ccc(Nc2nnc(Cc3ccncc3)c3ccccc23)cc1` here?
**A.** The residual activity was 97.1%.

**Q.** With `O=C1Nc2ccccc2/C1=C\c1c(Cl)[nH]c2ccccc12` as the compound, how does the residual activity read?
**A.** The residual activity was 92.7%.
